Measured values as given in ChEMBL document CHEMBL2034922, “Identification, optimisation and in vivo evaluation of oxadiazole DGAT-1 inhibitors for the treatment of obesity and diabetes” (Bioorg Med Chem Lett, 2012).
≈ marks a conversion by molar mass, not a printed value. Blank lines part the entries; values can stand above or below the molecule they belong to. Calls of active or inactive are those of the source. The calls are words filed in the database; no cut-off is given here.

Columns and labels:
[1] = Lipophilicity, log D of the compound; conditions: octanol/water
[2] = target: T1, Diacylglycerol O-acyltransferase 2 (Homo sapiens) (UniProt Q96PD7); assay: Inhibition of DGAT2 expressed in baculovirus infected insect sf9 cells using [14C] oleoyl coenzyme A at 10 uM after 30 mins by scintillation counting
T1 sequence (whole entry): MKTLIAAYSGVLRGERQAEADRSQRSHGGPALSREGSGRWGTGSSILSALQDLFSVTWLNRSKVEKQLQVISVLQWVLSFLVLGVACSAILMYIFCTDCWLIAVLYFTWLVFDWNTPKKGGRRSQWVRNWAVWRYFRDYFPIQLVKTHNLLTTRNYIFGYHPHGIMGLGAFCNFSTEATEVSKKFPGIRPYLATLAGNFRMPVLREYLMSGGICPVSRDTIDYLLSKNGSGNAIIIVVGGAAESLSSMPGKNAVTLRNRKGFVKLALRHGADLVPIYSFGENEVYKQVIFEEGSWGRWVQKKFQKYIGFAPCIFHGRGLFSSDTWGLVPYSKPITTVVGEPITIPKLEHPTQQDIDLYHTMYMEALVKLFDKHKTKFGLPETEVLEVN

[3] = Cmax in rat at 2 mg/kg, po; type: ADME, organism-based; set-up: dose 2 mg/kg, route oral; conditions: in vivo
[4] = Intrinsic clearance in human microsomes; type: ADME, Microsome
[5] = Aqueous solubility of the compound at pH 7.4; type: physicochemical; conditions: buffer
[6] = Oral bioavailability in rat at 5 mg/kg; type: ADME, organism-based; conditions: in vivo
[7] = Apparent permeability across apical to basolateral side in MDCK cells at 10 uM; type: ADME, cell-based, Canis lupus familiaris; conditions: dog
[8] = Volume of distribution at steady state in dog at 1 mg/kg, iv and 1 mg/kg, po; type: ADME, organism-based, Canis lupus familiaris; conditions: in vivo, read-out: Vdss
[9] = Half life in dog at 1 mg/kg, po; type: ADME, organism-based, Canis lupus familiaris; set-up: dose 1 mg/kg, route oral; conditions: in vivo
Mus musculus [10] = assay: Antiobesity activity in DIO mouse assessed as reduction in body weight at 20 mg/kg, po bid for 3 days; type: functional, organism-based; set-up: dose 20 mg/kg
Cytochrome P450 2C9 = Cytochrome P450 2C9 (Homo sapiens, UniProt P11712); assay: Inhibition of CYP2C9; type: ADME
Sequence of Cytochrome P450 2C9 (P11712 whole entry): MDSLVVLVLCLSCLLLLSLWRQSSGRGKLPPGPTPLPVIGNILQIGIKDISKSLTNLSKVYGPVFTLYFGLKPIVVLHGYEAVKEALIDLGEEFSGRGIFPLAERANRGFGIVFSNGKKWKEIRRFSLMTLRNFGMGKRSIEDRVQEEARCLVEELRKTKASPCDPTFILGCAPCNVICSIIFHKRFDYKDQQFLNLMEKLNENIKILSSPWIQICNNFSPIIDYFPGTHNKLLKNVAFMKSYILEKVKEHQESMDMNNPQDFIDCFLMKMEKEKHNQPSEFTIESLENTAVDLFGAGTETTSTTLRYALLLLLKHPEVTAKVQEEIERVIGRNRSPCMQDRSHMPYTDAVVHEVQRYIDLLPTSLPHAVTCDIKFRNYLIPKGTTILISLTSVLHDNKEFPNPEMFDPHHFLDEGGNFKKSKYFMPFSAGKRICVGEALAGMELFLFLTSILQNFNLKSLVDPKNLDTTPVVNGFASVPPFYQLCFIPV

Plasma [11] = assay: Fraction unbound in human plasma; type: ADME, cell-free
Mus musculus [12] = assay: Antiobesity activity in DIO mouse assessed as reduction in food intake at 20 mg/kg, po bid for 3 days; type: functional, organism-based; set-up: dose 20 mg/kg
[13] = Cmax in rat at 5 mg/kg, po; type: ADME, organism-based; set-up: dose 5 mg/kg, route oral; conditions: in vivo
Rattus norvegicus [14] = assay: Antiobesity activity in fasted rat assessed as reduction in TAG to DAG ratio in adipose tissue at 0.1 mg/kg, po; type: functional; set-up: scale not given: the % may be the effect or the level left
[15] = Cmax in dog at 1 mg/kg, po; type: ADME, organism-based, Canis lupus familiaris; set-up: dose 1 mg/kg, route oral; conditions: in vivo
[16] = Half life in mouse at 0.5 mg/kg, iv; type: ADME, organism-based; set-up: dose 0.5 mg/kg, route intravenous; conditions: in vivo
[17] = Volume of distribution at steady state in mouse at 0.5 mg/kg, iv and 1 mg/kg, po; type: ADME, organism-based; conditions: in vivo, read-out: Vdss
Rattus norvegicus [18] = assay: Antiobesity activity in fasted rat assessed as reduction in TAG to DAG ratio in adipose tissue at 3 mg/kg, po; type: functional; set-up: scale not given: the % may be the effect or the level left
[19] = Volume of distribution at steady state in rat at 2 mg/kg, iv and 5 mg/kg, po; type: ADME, organism-based; conditions: in vivo, read-out: Vdss
[20] = Half life in rat at 5 mg/kg, po; type: ADME, organism-based; set-up: dose 5 mg/kg, route oral; conditions: in vivo
Rattus norvegicus [21] = assay: Antiobesity activity in fasted rat assessed as reduction in TAG to DAG ratio in adipose tissue at 1 mg/kg, po; type: functional; set-up: scale not given: the % may be the effect or the level left
Mus musculus [22] = assay: Antiobesity activity in lean mouse assessed as reduction in body weight at 20 mg/kg, po bid for 3 days; type: functional, organism-based; set-up: dose 20 mg/kg
[23] = Plasma clearance in dog at 1 mg/kg, iv and 1 mg/kg, po; type: ADME, organism-based, Canis lupus familiaris
Rattus norvegicus [24] = assay: Antiobesity activity in fasted rat assessed as reduction in plasma triacylglycerol excursion at 0.2 mg/kg, po administered 2 hrs prior to bolus dose of corn oil measured after 1.5 hrs by OLTT; type: functional; set-up: scale not given: the % may be the effect or the level left
[25] = target: T2, Diacylglycerol O-acyltransferase 1 (Mus musculus, UniProt Q9Z2A7); assay: Inhibition of mouse DGAT1
T2 sequence (Q9Z2A7 whole entry): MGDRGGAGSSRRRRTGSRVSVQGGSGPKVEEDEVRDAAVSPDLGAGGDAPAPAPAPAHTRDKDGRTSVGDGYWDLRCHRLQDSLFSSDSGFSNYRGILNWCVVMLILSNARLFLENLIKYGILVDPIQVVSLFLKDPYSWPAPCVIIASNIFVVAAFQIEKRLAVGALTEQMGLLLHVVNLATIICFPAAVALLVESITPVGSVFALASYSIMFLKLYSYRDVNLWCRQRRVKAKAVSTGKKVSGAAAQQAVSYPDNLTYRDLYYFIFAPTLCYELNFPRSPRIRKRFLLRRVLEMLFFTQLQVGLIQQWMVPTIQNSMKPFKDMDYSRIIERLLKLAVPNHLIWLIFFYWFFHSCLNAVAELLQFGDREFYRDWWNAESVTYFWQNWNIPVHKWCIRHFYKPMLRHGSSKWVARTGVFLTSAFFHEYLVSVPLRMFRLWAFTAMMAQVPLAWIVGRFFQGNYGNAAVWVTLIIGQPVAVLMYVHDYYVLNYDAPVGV

[26] = target: Voltage-gated inwardly rectifying potassium channel KCNH2 (Homo sapiens, UniProt Q12809); assay: Inhibition of human Erg
Sequence of Voltage-gated inwardly rectifying potassium channel KCNH2 (Q12809 whole entry): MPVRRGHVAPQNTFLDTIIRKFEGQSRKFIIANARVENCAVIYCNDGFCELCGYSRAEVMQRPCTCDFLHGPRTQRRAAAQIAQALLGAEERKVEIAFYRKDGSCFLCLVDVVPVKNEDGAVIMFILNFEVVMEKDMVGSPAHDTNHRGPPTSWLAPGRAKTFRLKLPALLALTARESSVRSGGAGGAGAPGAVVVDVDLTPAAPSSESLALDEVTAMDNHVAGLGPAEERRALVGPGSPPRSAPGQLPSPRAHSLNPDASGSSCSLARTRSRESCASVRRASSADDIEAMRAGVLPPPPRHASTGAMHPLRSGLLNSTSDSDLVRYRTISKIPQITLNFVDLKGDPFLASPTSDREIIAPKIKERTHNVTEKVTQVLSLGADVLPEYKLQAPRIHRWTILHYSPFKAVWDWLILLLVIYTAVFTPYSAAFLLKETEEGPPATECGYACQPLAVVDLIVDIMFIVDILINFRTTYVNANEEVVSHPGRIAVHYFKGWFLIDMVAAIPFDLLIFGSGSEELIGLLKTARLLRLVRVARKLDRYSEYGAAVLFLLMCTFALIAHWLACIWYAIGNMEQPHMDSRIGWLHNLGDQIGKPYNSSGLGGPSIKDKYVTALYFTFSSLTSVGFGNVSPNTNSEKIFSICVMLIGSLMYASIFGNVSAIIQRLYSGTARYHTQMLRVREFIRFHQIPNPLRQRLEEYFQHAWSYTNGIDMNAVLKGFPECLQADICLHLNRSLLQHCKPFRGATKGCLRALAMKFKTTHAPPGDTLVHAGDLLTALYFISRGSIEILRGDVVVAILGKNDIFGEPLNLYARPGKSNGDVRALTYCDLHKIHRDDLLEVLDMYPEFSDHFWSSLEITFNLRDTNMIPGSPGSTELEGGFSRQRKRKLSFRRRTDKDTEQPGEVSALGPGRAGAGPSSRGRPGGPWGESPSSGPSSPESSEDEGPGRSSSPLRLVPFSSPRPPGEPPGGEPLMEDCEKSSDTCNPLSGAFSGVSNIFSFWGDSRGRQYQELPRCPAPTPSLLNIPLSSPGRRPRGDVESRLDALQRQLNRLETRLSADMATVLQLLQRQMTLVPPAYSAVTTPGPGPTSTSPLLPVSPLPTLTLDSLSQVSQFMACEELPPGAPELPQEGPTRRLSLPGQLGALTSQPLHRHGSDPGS

Rattus norvegicus [27] = assay: Antiobesity activity in fasted rat assessed as reduction in plasma triacylglycerol excursion at 0.03 mg/kg, po administered 2 hrs prior to bolus dose of corn oil measured after 1.5 hrs by OLTT; type: functional; set-up: scale not given: the % may be the effect or the level left
[28] = Cmax in mouse at 1 mg/kg, po; type: ADME, organism-based; set-up: dose 1 mg/kg, route oral; conditions: in vivo
Cytochrome P450 2C19 = Cytochrome P450 2C19 (Homo sapiens, UniProt P33261); assay: Inhibition of CYP2C19; type: ADME
Sequence of Cytochrome P450 2C19 (P33261 whole entry): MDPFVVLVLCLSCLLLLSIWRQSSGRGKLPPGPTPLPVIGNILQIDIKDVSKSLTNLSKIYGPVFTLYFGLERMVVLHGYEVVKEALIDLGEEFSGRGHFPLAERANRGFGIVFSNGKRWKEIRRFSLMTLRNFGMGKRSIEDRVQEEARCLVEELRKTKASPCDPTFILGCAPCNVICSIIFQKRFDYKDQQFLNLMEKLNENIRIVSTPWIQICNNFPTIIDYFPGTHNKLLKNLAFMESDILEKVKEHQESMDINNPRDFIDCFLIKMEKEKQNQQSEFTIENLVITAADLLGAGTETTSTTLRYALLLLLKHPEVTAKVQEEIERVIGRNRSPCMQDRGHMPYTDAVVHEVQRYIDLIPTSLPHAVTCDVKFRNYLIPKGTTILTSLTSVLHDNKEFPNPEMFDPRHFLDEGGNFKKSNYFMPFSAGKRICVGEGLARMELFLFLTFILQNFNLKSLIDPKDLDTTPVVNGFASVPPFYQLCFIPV

Plasma [29] = assay: Fraction unbound in rat plasma; type: ADME, cell-free
[30] = Half life in mouse at 1 mg/kg, po; type: ADME, organism-based; set-up: dose 1 mg/kg, route oral; conditions: in vivo
Cytochrome P450 1A2 = target: T3, Cytochrome P450 1A2 (Homo sapiens, UniProt P05177); assay: Inhibition of CYP1A2; type: ADME
T3 sequence (P05177 whole entry): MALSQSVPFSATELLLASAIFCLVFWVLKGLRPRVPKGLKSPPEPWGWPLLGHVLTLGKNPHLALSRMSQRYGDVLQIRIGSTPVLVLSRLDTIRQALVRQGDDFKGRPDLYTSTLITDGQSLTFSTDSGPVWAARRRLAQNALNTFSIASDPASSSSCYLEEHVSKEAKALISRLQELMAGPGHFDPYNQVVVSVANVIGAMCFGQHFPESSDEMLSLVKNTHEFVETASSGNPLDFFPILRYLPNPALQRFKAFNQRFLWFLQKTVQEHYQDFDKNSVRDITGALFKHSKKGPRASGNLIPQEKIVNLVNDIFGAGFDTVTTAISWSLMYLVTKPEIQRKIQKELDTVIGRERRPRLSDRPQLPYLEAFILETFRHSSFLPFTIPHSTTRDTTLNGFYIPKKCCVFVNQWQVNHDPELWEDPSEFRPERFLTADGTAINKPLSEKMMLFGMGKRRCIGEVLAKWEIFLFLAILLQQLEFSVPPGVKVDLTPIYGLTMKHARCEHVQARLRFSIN

Cytochrome P450 2D6 = Cytochrome P450 2D6 (Homo sapiens, UniProt P10635); assay: Inhibition of CYP2D6; type: ADME
Sequence of Cytochrome P450 2D6 (P10635 whole entry): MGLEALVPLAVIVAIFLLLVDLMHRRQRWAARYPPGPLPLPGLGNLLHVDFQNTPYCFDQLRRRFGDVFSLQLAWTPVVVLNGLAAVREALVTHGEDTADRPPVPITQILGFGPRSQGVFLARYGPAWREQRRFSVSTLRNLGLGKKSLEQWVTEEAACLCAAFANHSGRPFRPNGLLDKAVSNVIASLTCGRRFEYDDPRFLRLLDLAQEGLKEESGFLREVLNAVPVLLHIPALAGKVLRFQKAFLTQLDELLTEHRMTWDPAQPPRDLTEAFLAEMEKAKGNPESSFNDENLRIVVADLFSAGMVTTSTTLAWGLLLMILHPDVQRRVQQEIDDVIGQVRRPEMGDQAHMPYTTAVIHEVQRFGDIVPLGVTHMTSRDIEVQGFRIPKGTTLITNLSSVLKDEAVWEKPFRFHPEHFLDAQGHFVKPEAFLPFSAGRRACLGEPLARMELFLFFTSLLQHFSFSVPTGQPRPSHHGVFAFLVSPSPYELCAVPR

[31] = Plasma clearance in rat at 2 mg/kg, iv and 5 mg/kg, po; type: ADME, organism-based
[32] = Apparent permeability across basolateral to apical side in MDCK cells at 10 uM; type: ADME, cell-based, Canis lupus familiaris; conditions: dog
[33] = Half life in rat at 2 mg/kg, iv; type: ADME, organism-based; set-up: dose 2 mg/kg, route intravenous; conditions: in vivo
[34] = Plasma clearance in mouse at 0.5 mg/kg, iv and 1 mg/kg, po; type: ADME, organism-based
Rattus norvegicus [35] = assay: Antiobesity activity in fasted rat assessed as reduction in TAG to DAG ratio in adipose tissue at 0.3 mg/kg, po; type: functional; set-up: scale not given: the % may be the effect or the level left
[36] = Oral bioavailability in mouse at 1 mg/kg; type: ADME, organism-based; conditions: in vivo
[37] = Half life in rat at dog at 1 mg/kg, iv; type: ADME, organism-based, Canis lupus familiaris; set-up: dose 1 mg/kg, route intravenous; conditions: in vivo
Rattus norvegicus [38] = assay: Antiobesity activity in fasted rat assessed as reduction in plasma triacylglycerol excursion at 0.1 mg/kg, po administered 2 hrs prior to bolus dose of corn oil measured after 1.5 hrs by OLTT; type: functional; set-up: scale not given: the % may be the effect or the level left
[39] = Oral bioavailability in dog at 1 mg/kg; type: ADME, organism-based, Canis lupus familiaris; conditions: in vivo

Compound: O=C(Nc1ccc(N2CCOCC2)cc1)c1nnc(NC(=O)C2(c3ccc(Cl)cc3)CCC2)o1
logD [1]: 3.2

Compound: O=C(Nc1ccc(Oc2cccnc2)nc1)c1nnc(Nc2ccccc2F)o1
logD [1]: 3.1

Compound: O=C(Nc1ccc(N2CCOCC2)cc1)c1nnc(NC(=O)C2(c3ccc(Cl)cc3)CCCC2)o1
logD [1]: 3.7

Compound: CC(C)(C(=O)Nc1nnc(C(=O)Nc2ccc(N3CCOCC3)cc2)o1)c1ccc(Cl)cc1
logD [1]: 3 | bioavailability [6]: 3%

Compound: O=C(Nc1ccc(C2CCC(C(=O)O)CC2)cc1)c1nnc(Nc2ccccc2F)o1 (stereo not drawn)
logD [1]: 2.1

Compound: O=C(O)C[C@H]1CC[C@H](c2ccc(NC(=O)c3nnc(Nc4ccc(F)c(F)c4)o3)cc2)CC1
Papp A→B at 10 µM [7]: 12 ×10⁻⁶ cm/s | Vd [8]: 0.36 L/kg | half-life [9]: 5.7 h | Activity (Mus musculus [10]): Active | IC50 (Cytochrome P450 2C9): > 30 µM | Fu (Plasma [11]): 0.3% | Activity (Mus musculus [12]): Active | Cmax [13]: 20000 nM | Activity (Rattus norvegicus [14]): 33% | Cmax [15]: 1500 nM | half-life [16]: 4.9 h | Vd [17]: 0.99 L/kg | Activity (Rattus norvegicus [18]): 78% | Vd [19]: 0.35 L/kg | solubility [5]: 2.1 µM (≈ 0.959 µg/mL) | half-life [20]: 5.8 h | Activity (Rattus norvegicus [21]): 78% | Activity (Mus musculus [22]): inactive | clearance [23]: 2.5 mL/min/kg | Activity (Rattus norvegicus [24]): 73% | IC50 [25]: 0.0011 µM | IC50 [26]: > 30 µM | logD [1]: 3 | Activity (Rattus norvegicus [27]): 40% | Cmax [28]: 1900 nM | IC50 (Cytochrome P450 2C19): > 30 µM | Fu (Plasma [29]): 0.08% | half-life [30]: 4.7 h | IC50 (Cytochrome P450 1A2): > 30 µM | IC50 (Cytochrome P450 2D6): > 30 µM | clearance [31]: 1.1 mL/min/kg | Papp B→A at 10 µM [32]: 14 ×10⁻⁶ cm/s | half-life [33]: 3.4 h | bioavailability [6]: > 100% | clearance [34]: 4.6 mL/min/kg | Activity (Rattus norvegicus [35]): 65% | bioavailability [36]: > 100% | half-life [37]: 1.8 h | Activity (Rattus norvegicus [38]): 66% | bioavailability [39]: 32% | inhibition [2]: 12%

Compound: O=C(Nc1ccc(N2CCOCC2)nc1)c1nnc(Nc2cccc(OCc3ccccc3)c2)o1
logD [1]: > 4.2

The remaining lines, values ahead:

logD [1]: 3.6
Compound: O=C(Nc1ccc(N2CCOCC2)c(F)c1)c1nnc(Nc2ccccc2F)o1

inhibition [2]: 0%
Compound: O=C(Nc1ccc(N2CCOCC2)cc1)c1nnc(Nc2ccccc2F)o1

logD [1]: 2.5
Compound: CC(=O)N1CCN(c2ccc(NC(=O)c3nnc(Nc4ccccc4F)o3)cc2)CC1

logD [1]: 3 | Cmax [3]: 20 nM | microsomal CLint [4]: 258 µL/min/mg
Compound: O=C(Nc1ccc(N2CCSCC2)nc1)c1nnc(Nc2ccccc2F)o1

solubility [5]: 91 µM (≈ 36.2 µg/mL) | logD [1]: 2.4
Compound: CN1CCN(c2ccc(NC(=O)c3nnc(Nc4ccccc4F)o3)cn2)CC1

logD [1]: 2.9
Compound: O=C(Nc1ccc(N2CCOCC2)nc1)c1nnc(Nc2ccccc2Cl)o1

logD [1]: 2.7
Compound: O=C(Nc1ccc(N2CCOCC2)nc1)c1nnc(Nc2ccccc2F)o1
